Measurements: the supplement of paper PMC4862054

Tested on: BT-474
Assay: normalised response (% of control), CellTox Green; higher = less cell death (100 = DMSO, 0 = benzethonium chloride kill control)
Conditions: incubation time: 72 h
Method in brief: (§1)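 Breast cancer cell lines in 20 µl suspension were added to 384-well plates containing compound at 5 concentrations, spaced in 10-fold steps across a 10,000-fold range chosen for each compound, and incubated for 72 h. CellTox Green fluorescence was read at 485/520 nm, followed by CellTiter-Glo luminescence after 10 min at room temperature. Signals on each plate were normalised so that 0.1 % DMSO equals 100 and a positive kill control equals 0. Every value in the table is the normalised signal at one concentration of the series.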

SMILES	normalised response [%]
COc1ccc(-c2cc3c(C)nc(N)nc3n([C@H]3CC[C@H](OCCO)CC3)c2=O)cn1 (1000 nM)	49.8
COc1ccc(-c2cc3c(C)nc(N)nc3n([C@H]3CC[C@H](OCCO)CC3)c2=O)cn1 (10000 nM)	-9.27
O=C(Nc1c[nH]nc1-c1nc2ccc(CN3CCOCC3)cc2[nH]1)NC1CC1 [AT9283] (1000 nM)	89.1
COc1cc(CCc2cc(NC(=O)c3ccc(N4CC(C)NC(C)C4)cc3)n[nH]2)cc(OC)c1 (stereo unspecified) [AZD4547] (100 nM)	96.5
CO[C@@H](C(=O)N1Cc2[nH]nc(NC(=O)c3ccc(N4CCN(C)CC4)cc3)c2C1)c1ccccc1 [Danusertib] (1000 nM)	102
Cc1nc(Nc2ncc(C(=O)Nc3c(C)cccc3Cl)s2)cc(N2CCN(CCO)CC2)n1 [Dasatinib] (100 nM)	94.4
Cc1nc(Nc2ncc(C(=O)Nc3c(C)cccc3Cl)s2)cc(N2CCN(CCO)CC2)n1 [Dasatinib] (1000 nM)	103
Cc1c(CN2CCN(C(=O)[C@H](C)O)CC2)sc2c(N3CCOCC3)nc(-c3cnc(N)nc3)nc12 [GDC-0980] (1000 nM)	85.6
Cc1c(CN2CCN(C(=O)[C@H](C)O)CC2)sc2c(N3CCOCC3)nc(-c3cnc(N)nc3)nc12 [GDC-0980] (10000 nM)	53.5
C[C@]12O[C@H](C[C@]1(O)CO)n1c3ccccc3c3c4c(c5c6ccccc6n2c5c31)CNC4=O [Lestaurtinib] (100 nM)	94
C[C@]12O[C@H](C[C@]1(O)CO)n1c3ccccc3c3c4c(c5c6ccccc6n2c5c31)CNC4=O [Lestaurtinib] (1000 nM)	77.2
O=C1c2c(O)ccc(O)c2C(=O)c2c(NCCNCCO)ccc(NCCNCCO)c21 [Mitoxantrone] (100 nM)	101
O=C1c2c(O)ccc(O)c2C(=O)c2c(NCCNCCO)ccc(NCCNCCO)c21 [Mitoxantrone] (1000 nM)	95.7
Nc1ccccc1NC(=O)c1ccc(CNc2nccc(-c3cccnc3)n2)cc1 [Mocetinostat] (10000 nM)	34.8
COc1nc(N)nc2c1ncn2[C@@H]1O[C@H](CO)[C@@H](O)[C@@H]1O [Nelarabine] (10000 nM)	96
Cc1ccc(Nc2nccc(N(C)c3ccc4c(C)n(C)nc4c3)n2)cc1S(N)(=O)=O [Pazopanib] (1000 nM)	104
Cc1ccc(Nc2nccc(N(C)c3ccc4c(C)n(C)nc4c3)n2)cc1S(N)(=O)=O [Pazopanib] (10000 nM)	99.5
C[C@]12C=CC(=O)C=C1CC[C@@H]1[C@@H]2[C@@H](O)C[C@@]2(C)[C@H]1CC[C@]2(O)C(=O)CO [Prednisolone] (10000 nM)	101
CNC(=O)c1cc(Oc2ccc(NC(=O)Nc3ccc(Cl)c(C(F)(F)F)c3)cc2)ccn1 [Sorafenib] (100 nM)	96.8
CNC(=O)c1cc(Oc2ccc(NC(=O)Nc3ccc(Cl)c(C(F)(F)F)c3)cc2)ccn1 [Sorafenib] (1000 nM)	100
CCN(CC)CCNC(=O)c1c(C)[nH]c(/C=C2\C(=O)Nc3ccc(F)cc32)c1C [Sunitinib] (100 nM)	103
CCN(CC)CCNC(=O)c1c(C)[nH]c(/C=C2\C(=O)Nc3ccc(F)cc32)c1C [Sunitinib] (1000 nM)	95
CC[C@@]1(O)C(=O)OCc2c1cc1n(c2=O)Cc2cc3c(CN(C)C)c(O)ccc3nc2-1 [Topotecan] (100 nM)	103

Tested on: BT-549
Assay: as above
Conditions: incubation time: 72 h
Method in brief: as §1

SMILES	normalised response [%]
COc1ccc(-c2cc3c(C)nc(N)nc3n([C@H]3CC[C@H](OCCO)CC3)c2=O)cn1 (1000 nM)	115
COc1ccc(-c2cc3c(C)nc(N)nc3n([C@H]3CC[C@H](OCCO)CC3)c2=O)cn1 (10000 nM)	0.06
O=C(Nc1c[nH]nc1-c1nc2ccc(CN3CCOCC3)cc2[nH]1)NC1CC1 [AT9283] (1000 nM)	70.5
COc1cc(CCc2cc(NC(=O)c3ccc(N4CC(C)NC(C)C4)cc3)n[nH]2)cc(OC)c1 (stereo unspecified) [AZD4547] (100 nM)	118
CO[C@@H](C(=O)N1Cc2[nH]nc(NC(=O)c3ccc(N4CCN(C)CC4)cc3)c2C1)c1ccccc1 [Danusertib] (1000 nM)	112
Cc1nc(Nc2ncc(C(=O)Nc3c(C)cccc3Cl)s2)cc(N2CCN(CCO)CC2)n1 [Dasatinib] (100 nM)	85.9
Cc1nc(Nc2ncc(C(=O)Nc3c(C)cccc3Cl)s2)cc(N2CCN(CCO)CC2)n1 [Dasatinib] (1000 nM)	39.7
Cc1c(CN2CCN(C(=O)[C@H](C)O)CC2)sc2c(N3CCOCC3)nc(-c3cnc(N)nc3)nc12 [GDC-0980] (1000 nM)	108
Cc1c(CN2CCN(C(=O)[C@H](C)O)CC2)sc2c(N3CCOCC3)nc(-c3cnc(N)nc3)nc12 [GDC-0980] (10000 nM)	95.2
C[C@]12O[C@H](C[C@]1(O)CO)n1c3ccccc3c3c4c(c5c6ccccc6n2c5c31)CNC4=O [Lestaurtinib] (100 nM)	99.7
C[C@]12O[C@H](C[C@]1(O)CO)n1c3ccccc3c3c4c(c5c6ccccc6n2c5c31)CNC4=O [Lestaurtinib] (1000 nM)	50
O=C1c2c(O)ccc(O)c2C(=O)c2c(NCCNCCO)ccc(NCCNCCO)c21 [Mitoxantrone] (100 nM)	117
O=C1c2c(O)ccc(O)c2C(=O)c2c(NCCNCCO)ccc(NCCNCCO)c21 [Mitoxantrone] (1000 nM)	108
Nc1ccccc1NC(=O)c1ccc(CNc2nccc(-c3cccnc3)n2)cc1 [Mocetinostat] (10000 nM)	34.1
COc1nc(N)nc2c1ncn2[C@@H]1O[C@H](CO)[C@@H](O)[C@@H]1O [Nelarabine] (10000 nM)	87.5
Cc1ccc(Nc2nccc(N(C)c3ccc4c(C)n(C)nc4c3)n2)cc1S(N)(=O)=O [Pazopanib] (1000 nM)	127
Cc1ccc(Nc2nccc(N(C)c3ccc4c(C)n(C)nc4c3)n2)cc1S(N)(=O)=O [Pazopanib] (10000 nM)	119
C[C@]12C=CC(=O)C=C1CC[C@@H]1[C@@H]2[C@@H](O)C[C@@]2(C)[C@H]1CC[C@]2(O)C(=O)CO [Prednisolone] (10000 nM)	90.8
CNC(=O)c1cc(Oc2ccc(NC(=O)Nc3ccc(Cl)c(C(F)(F)F)c3)cc2)ccn1 [Sorafenib] (100 nM)	114
CNC(=O)c1cc(Oc2ccc(NC(=O)Nc3ccc(Cl)c(C(F)(F)F)c3)cc2)ccn1 [Sorafenib] (1000 nM)	111
CCN(CC)CCNC(=O)c1c(C)[nH]c(/C=C2\C(=O)Nc3ccc(F)cc32)c1C [Sunitinib] (100 nM)	127
CCN(CC)CCNC(=O)c1c(C)[nH]c(/C=C2\C(=O)Nc3ccc(F)cc32)c1C [Sunitinib] (1000 nM)	104
CC[C@@]1(O)C(=O)OCc2c1cc1n(c2=O)Cc2cc3c(CN(C)C)c(O)ccc3nc2-1 [Topotecan] (100 nM)	92.8

Tested on: CAL-120
Assay: as above
Conditions: incubation time: 72 h
Method in brief: as §1

SMILES	normalised response [%]
COc1ccc(-c2cc3c(C)nc(N)nc3n([C@H]3CC[C@H](OCCO)CC3)c2=O)cn1 (1000 nM)	98.5
COc1ccc(-c2cc3c(C)nc(N)nc3n([C@H]3CC[C@H](OCCO)CC3)c2=O)cn1 (10000 nM)	75.8
O=C(Nc1c[nH]nc1-c1nc2ccc(CN3CCOCC3)cc2[nH]1)NC1CC1 [AT9283] (1000 nM)	57.7
COc1cc(CCc2cc(NC(=O)c3ccc(N4CC(C)NC(C)C4)cc3)n[nH]2)cc(OC)c1 (stereo unspecified) [AZD4547] (100 nM)	99.3
CO[C@@H](C(=O)N1Cc2[nH]nc(NC(=O)c3ccc(N4CCN(C)CC4)cc3)c2C1)c1ccccc1 [Danusertib] (1000 nM)	94
Cc1nc(Nc2ncc(C(=O)Nc3c(C)cccc3Cl)s2)cc(N2CCN(CCO)CC2)n1 [Dasatinib] (100 nM)	97.2
Cc1nc(Nc2ncc(C(=O)Nc3c(C)cccc3Cl)s2)cc(N2CCN(CCO)CC2)n1 [Dasatinib] (1000 nM)	100
Cc1c(CN2CCN(C(=O)[C@H](C)O)CC2)sc2c(N3CCOCC3)nc(-c3cnc(N)nc3)nc12 [GDC-0980] (1000 nM)	103
Cc1c(CN2CCN(C(=O)[C@H](C)O)CC2)sc2c(N3CCOCC3)nc(-c3cnc(N)nc3)nc12 [GDC-0980] (10000 nM)	104
C[C@]12O[C@H](C[C@]1(O)CO)n1c3ccccc3c3c4c(c5c6ccccc6n2c5c31)CNC4=O [Lestaurtinib] (100 nM)	96.2
C[C@]12O[C@H](C[C@]1(O)CO)n1c3ccccc3c3c4c(c5c6ccccc6n2c5c31)CNC4=O [Lestaurtinib] (1000 nM)	65.5
O=C1c2c(O)ccc(O)c2C(=O)c2c(NCCNCCO)ccc(NCCNCCO)c21 [Mitoxantrone] (100 nM)	-30.1
O=C1c2c(O)ccc(O)c2C(=O)c2c(NCCNCCO)ccc(NCCNCCO)c21 [Mitoxantrone] (1000 nM)	107
Nc1ccccc1NC(=O)c1ccc(CNc2nccc(-c3cccnc3)n2)cc1 [Mocetinostat] (10000 nM)	17.4
COc1nc(N)nc2c1ncn2[C@@H]1O[C@H](CO)[C@@H](O)[C@@H]1O [Nelarabine] (10000 nM)	93.8
Cc1ccc(Nc2nccc(N(C)c3ccc4c(C)n(C)nc4c3)n2)cc1S(N)(=O)=O [Pazopanib] (1000 nM)	101
Cc1ccc(Nc2nccc(N(C)c3ccc4c(C)n(C)nc4c3)n2)cc1S(N)(=O)=O [Pazopanib] (10000 nM)	94
C[C@]12C=CC(=O)C=C1CC[C@@H]1[C@@H]2[C@@H](O)C[C@@]2(C)[C@H]1CC[C@]2(O)C(=O)CO [Prednisolone] (10000 nM)	99.8
CNC(=O)c1cc(Oc2ccc(NC(=O)Nc3ccc(Cl)c(C(F)(F)F)c3)cc2)ccn1 [Sorafenib] (100 nM)	99.5
CNC(=O)c1cc(Oc2ccc(NC(=O)Nc3ccc(Cl)c(C(F)(F)F)c3)cc2)ccn1 [Sorafenib] (1000 nM)	101
CCN(CC)CCNC(=O)c1c(C)[nH]c(/C=C2\C(=O)Nc3ccc(F)cc32)c1C [Sunitinib] (100 nM)	98.3
CCN(CC)CCNC(=O)c1c(C)[nH]c(/C=C2\C(=O)Nc3ccc(F)cc32)c1C [Sunitinib] (1000 nM)	98.2
CC[C@@]1(O)C(=O)OCc2c1cc1n(c2=O)Cc2cc3c(CN(C)C)c(O)ccc3nc2-1 [Topotecan] (100 nM)	98.9

Tested on: CAL-148
Assay: as above
Conditions: incubation time: 72 h
Method in brief: as §1

SMILES	normalised response [%]
COc1ccc(-c2cc3c(C)nc(N)nc3n([C@H]3CC[C@H](OCCO)CC3)c2=O)cn1 (1000 nM)	51.2
COc1ccc(-c2cc3c(C)nc(N)nc3n([C@H]3CC[C@H](OCCO)CC3)c2=O)cn1 (10000 nM)	-9.66
O=C(Nc1c[nH]nc1-c1nc2ccc(CN3CCOCC3)cc2[nH]1)NC1CC1 [AT9283] (1000 nM)	83.9
COc1cc(CCc2cc(NC(=O)c3ccc(N4CC(C)NC(C)C4)cc3)n[nH]2)cc(OC)c1 (stereo unspecified) [AZD4547] (100 nM)	101
CO[C@@H](C(=O)N1Cc2[nH]nc(NC(=O)c3ccc(N4CCN(C)CC4)cc3)c2C1)c1ccccc1 [Danusertib] (1000 nM)	45.1
Cc1nc(Nc2ncc(C(=O)Nc3c(C)cccc3Cl)s2)cc(N2CCN(CCO)CC2)n1 [Dasatinib] (100 nM)	98.8
Cc1nc(Nc2ncc(C(=O)Nc3c(C)cccc3Cl)s2)cc(N2CCN(CCO)CC2)n1 [Dasatinib] (1000 nM)	104
Cc1c(CN2CCN(C(=O)[C@H](C)O)CC2)sc2c(N3CCOCC3)nc(-c3cnc(N)nc3)nc12 [GDC-0980] (1000 nM)	68.3
Cc1c(CN2CCN(C(=O)[C@H](C)O)CC2)sc2c(N3CCOCC3)nc(-c3cnc(N)nc3)nc12 [GDC-0980] (10000 nM)	49.1
C[C@]12O[C@H](C[C@]1(O)CO)n1c3ccccc3c3c4c(c5c6ccccc6n2c5c31)CNC4=O [Lestaurtinib] (100 nM)	95.8
C[C@]12O[C@H](C[C@]1(O)CO)n1c3ccccc3c3c4c(c5c6ccccc6n2c5c31)CNC4=O [Lestaurtinib] (1000 nM)	67
O=C1c2c(O)ccc(O)c2C(=O)c2c(NCCNCCO)ccc(NCCNCCO)c21 [Mitoxantrone] (100 nM)	82.3
O=C1c2c(O)ccc(O)c2C(=O)c2c(NCCNCCO)ccc(NCCNCCO)c21 [Mitoxantrone] (1000 nM)	52.5
Nc1ccccc1NC(=O)c1ccc(CNc2nccc(-c3cccnc3)n2)cc1 [Mocetinostat] (10000 nM)	35.8
COc1nc(N)nc2c1ncn2[C@@H]1O[C@H](CO)[C@@H](O)[C@@H]1O [Nelarabine] (10000 nM)	100
Cc1ccc(Nc2nccc(N(C)c3ccc4c(C)n(C)nc4c3)n2)cc1S(N)(=O)=O [Pazopanib] (1000 nM)	106
Cc1ccc(Nc2nccc(N(C)c3ccc4c(C)n(C)nc4c3)n2)cc1S(N)(=O)=O [Pazopanib] (10000 nM)	100
C[C@]12C=CC(=O)C=C1CC[C@@H]1[C@@H]2[C@@H](O)C[C@@]2(C)[C@H]1CC[C@]2(O)C(=O)CO [Prednisolone] (10000 nM)	101
CNC(=O)c1cc(Oc2ccc(NC(=O)Nc3ccc(Cl)c(C(F)(F)F)c3)cc2)ccn1 [Sorafenib] (100 nM)	73
CNC(=O)c1cc(Oc2ccc(NC(=O)Nc3ccc(Cl)c(C(F)(F)F)c3)cc2)ccn1 [Sorafenib] (1000 nM)	74.5
CCN(CC)CCNC(=O)c1c(C)[nH]c(/C=C2\C(=O)Nc3ccc(F)cc32)c1C [Sunitinib] (100 nM)	86
CCN(CC)CCNC(=O)c1c(C)[nH]c(/C=C2\C(=O)Nc3ccc(F)cc32)c1C [Sunitinib] (1000 nM)	85.4
